Reference: patent US9096589B2, “Heteroaromatic phenylimidazole derivatives as PDE10A enzyme inhibitors” (H. Lundbeck A/S, priority 2009, dated 2015)

Biological target: PDE10A (Homo sapiens (Human), UniProt Q9Y233)
Assay: PDE10A inhibition assay
Assay type: biochemical
Protocol: Active PDE10A enzyme is prepared in a number of ways for use in PDE assays (Loughney, K. et al. Gene 1999, 234, 109-117; Fujishige, K. et al. Eur J. Biochem. 1999, 266, 1118-1127 and Soderling, S. et al. Proc. Natl. Acad. Sci. 1999, 96, 7071-7076). PDE10A can be expressed as full-length proteins or as truncated proteins, as long as they express the catalytic domain. PDE10A can be prepared in different cell types, for example insect cells or E. coli. An example of a method to obtain catalytically active PDE10A is as follows: The catalytic domain of human PDE10A (amino acids 440-779 from the sequence with accession number NP 006652) is amplified from total human brain total RNA by standard RT-PCR and is cloned into the BamH1 and Xho1 sites of the pET28a vector (Novagen). Expression in coli is performed according to standard protocols. Briefly, the expression plasmids are transformed into the BL21(DE3) E. coli strain, and 50 mL cultures inoculated with the cells allowed to grow to an OD600 of 0.4-0.6 before protein expression is induced with 0.5 mM IPTG. Following induction, the cells are incubated overnight at room temperature, after which the cells are collected by centrifugation. Cells expressing PDE10A are resuspended in 12 mL (50 mM TRIS-HCl-pH8.0, 1 mM MgCl2 and protease inhibitors). The cells are lysed by sonication, and after all cells are lysed, TritonX100 is added according to Novagen protocols.
A PDE10A assay may for example, be performed as follows: The assay is performed in 60 uL samples containing a fixed amount of the relevant PDE enzyme (sufficient to convert 20-25% of the cyclic nucleotide substrate); a buffer (50 mM HEPES7.6; 10 mM MgCl2; 0.02% Tween20), 0.1 mg/ml BSA, 225 pCi of ^3H-labelled cyclic nucleotide substrate, tritium labeled cAMP to a final concentration of 5 nM and varying amounts of inhibitors. Reactions are initiated by addition of the cyclic nucleotide substrate, and reactions are allowed to proceed for one hr at room temperature before being terminated through mixing with 15 uL 8 mg/mL yttrium silicate SPA beads (Amersham). The beads are allowed to settle for one hr in the dark before the plates are counted in a Wallac 1450 Microbeta counter. The measured signal can be converted to activity relative to an uninhibited control (100%) and IC50 values can be calculated using the Xlfit extension to EXCEL.

Chain of PDE10A (Q9Y233 716-1055): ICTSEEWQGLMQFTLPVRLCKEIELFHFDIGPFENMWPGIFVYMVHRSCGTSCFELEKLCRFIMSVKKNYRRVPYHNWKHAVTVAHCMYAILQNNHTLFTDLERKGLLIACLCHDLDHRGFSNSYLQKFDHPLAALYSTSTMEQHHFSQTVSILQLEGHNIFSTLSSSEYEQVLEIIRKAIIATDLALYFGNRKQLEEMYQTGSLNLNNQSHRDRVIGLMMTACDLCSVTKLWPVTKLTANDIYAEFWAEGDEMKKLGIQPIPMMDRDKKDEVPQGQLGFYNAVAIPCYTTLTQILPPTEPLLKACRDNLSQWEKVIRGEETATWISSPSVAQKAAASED

SMILES	IC50
Cc1cc(C)n2cc(CCc3nc(-c4cccs4)cn3[C@@H](C)CO)nc2n1 [(S)-2-{2-[2-(5,7-Dimethyl-imidazo[1,2-a]pyrimidin-2-yl)-ethyl]-4-thiophen-2-yl-imidazol-1-yl}-propan-1-ol]	8.8 nM
COc1cccn2nc(CCc3nc(-c4ccsc4)cn3C)nc12 [8-Methoxy-2-[2-(1-methyl-4-thiophen-3-yl-1H-imidazol-2-yl)-ethyl]-[1,2,4]triazolo[1,5-a]pyridine]	16 nM
Cn1cc(-c2cncs2)nc1/C=C/c1nc2c(F)cccn2n1 [8-Fluoro-2-[(E)-2-(1-methyl-4-thiazol-5-yl-1H-imidazol-2-yl)-vinyl]-[1,2,4]triazolo[1,5-a]pyridine]	300 nM
Cc1cc(C)n2cc(/C=C/c3nc(-c4cccs4)cn3C)nc2n1 [5,7-Dimethyl-2-[(E)-2-(1-methyl-4-thiophen-2-yl-1H-imidazol-2-yl)-vinyl]-imidazo[1,2-a]pyrimidine]	8.8 nM
Cc1ncc(C)n2nc(CCc3nc(-c4cccs4)cn3C)nc12 [5,8-Dimethyl-2-[2-(1-methyl-4-thiophen-2-yl-1H-imidazol-2-yl)-ethyl]-[1,2,4]triazolo[1,5-a]pyrazine]	0.39 nM
COc1ccc(C)n2nc(CCc3nc(-c4ccc(C)o4)cn3C)nc12 [8-Methoxy-5-methyl-2-{2-[1-methyl-4-(5-methyl-furan-2-yl)-1H-imidazol-2-yl]-ethyl}-[1,2,4]triazolo[1,5-a]pyridine]	20 nM
Cc1cc(C)n2cc(CCc3nc(-c4cccs4)cn3C3CCCC3)nc2n1 [2-[2-(1-Cyclopentyl-4-thiophen-2-yl-1H-imidazol-2-yl)-ethyl]-5,7-dimethyl-imidazo[1,2-a]pyrimidine]	46 nM
Cn1cc(-c2cccs2)nc1/C=C/c1nc2c(F)cccn2n1 [8-Fluoro-2-[(E)-2-(1-methyl-4-thiophen-2-yl-1H-imidazol-2-yl)-vinyl]-[1,2,4]triazolo[1,5-a]pyridine]	100 nM
CCCn1cc(-c2cccs2)nc1CCc1nc2c(OC)ccc(C)n2n1 [8-Methoxy-5-methyl-2-[2-(1-propyl-4-thiophen-2-yl-1H-imidazol-2-yl)-ethyl]-[1,2,4]triazolo[1,5-a]pyridine]	1.2 nM
Cc1cccc2nc(CCc3nc(-c4ccsc4)c[nH]3)nn12 [5-Methyl-2-[2-(4-thiophen-3-yl-1H-imidazol-2-yl)-ethyl]-[1,2,4]triazolo[1,5-a]pyridine]	5.7 nM
Cc1cc(C)n2cc(/C=C/c3nc(-c4ccoc4)cn3C)nc2n1 [2-[(E)-2-(4-Furan-3-yl-1-methyl-1H-imidazol-2-yl)-vinyl]-5,7-dimethyl-imidazo[1,2-a]pyrimidine]	140 nM
Cc1cccc2nc(CCc3nc(-c4cncs4)cn3C)nn12 [5-Methyl-2-[2-(1-methyl-4-thiazol-5-yl-1H-imidazol-2-yl)-ethyl]-[1,2,4]triazolo[1,5-a]pyridine]	39 nM
COc1cccn2nc(CCc3nc(-c4ccc(C)o4)c[nH]3)nc12 [8-Methoxy-2-{2-[4-(5-methyl-furan-2-yl)-1H-imidazol-2-yl]-ethyl}-[1,2,4]triazolo[1,5-a]pyridine]	120 nM
Cc1cccc2nc(CCc3nc(-c4cccnc4)c[nH]3)nn12 [5-Methyl-2-[2-(4-pyridin-3-yl-1H-imidazol-2-yl)-ethyl]-[1,2,4]triazolo[1,5-a]pyridine]	9.6 nM
Cn1cc(-c2cccs2)nc1CCc1nc2c(F)cccn2n1 [8-Fluoro-2-[2-(1-methyl-4-thiophen-2-yl-1H-imidazol-2-yl)-ethyl]-[1,2,4]triazolo[1,5-a]pyridine]	47 nM
Cc1ccc(-c2cn(C)c(CCc3nc4c(C)ncc(C)n4n3)n2)o1 [5,8-Dimethyl-2-{2-[1-methyl-4-(5-methyl-furan-2-yl)-1H-imidazol-2-yl]-ethyl}-[1,2,4]triazolo[1,5-a]pyrazine]	6.8 nM
Cc1cc(C)n2cc(CCc3nc(-c4cccs4)cn3CC(C)C)nc2n1 [2-[2-(1-Isobutyl-4-thiophen-2-yl-1H-imidazol-2-yl)-ethyl]-5,7-dimethyl-imidazo[1,2-a]pyrimidine]	12 nM
Cc1cc(C)n2nc(CCc3nc(-c4ccc(C)o4)cn3C)nc2n1 [5,7-Dimethyl-2-{2-[1-methyl-4-(5-methyl-furan-2-yl)-1H-imidazol-2-yl]-ethyl}-[1,2,4]triazolo[1,5-a]pyrimidine]	38 nM
COCC(O)Cn1cc(-c2cccs2)nc1CCc1nc2c(C)cccn2n1 (stereo not drawn) [1-Methoxy-3-{2-[2-(8-methyl-[1,2,4]triazolo[1,5-a]pyridin-2-yl)-ethyl]-4-thiophen-2-yl-imidazol-1-yl}-propan-2-ol]	8.4 nM
COc1cccn2nc(/C=C/c3nc(-c4cscc4C)cn3C)nc12 [8-Methoxy-2-{(E)-2-[1-methyl-4-(4-methyl-thiophen-3-yl)-1H-imidazol-2-yl]-vinyl}-[1,2,4]triazolo[1,5-a]pyridine]	55 nM
Cc1cccn2nc(CCc3nc(-c4cncs4)cn3C)nc12 [8-Methyl-2-[2-(1-methyl-4-thiazol-5-yl-1H-imidazol-2-yl)-ethyl]-[1,2,4]triazolo[1,5-a]pyridine]	36 nM
Cc1cc(C)n2cc(/C=C/c3nc(-c4cscn4)cn3C)nc2n1 [5,7-Dimethyl-2-[(E)-2-(1-methyl-4-thiazol-4-yl-1H-imidazol-2-yl)-vinyl]-imidazo[1,2-a]pyrimidine]	180 nM
Cc1cccn2nc(CCc3nc(-c4cccs4)c[nH]3)nc12 [8-Methyl-2-[2-(4-thiophen-2-yl-1H-imidazol-2-yl)-ethyl]-[1,2,4]triazolo[1,5-a]pyridine]	0.99 nM
COc1ccc(C)n2nc(CCc3nc(-c4ccsc4)cn3C)nc12 [8-Methoxy-5-methyl-2-[2-(1-methyl-4-thiophen-3-yl-1H-imidazol-2-yl)-ethyl]-[1,2,4]triazolo[1,5-a]pyridine]	1.7 nM
Cc1cccc2nc(CCc3nc(-c4cccs4)cn3C[C@@H](O)CN3CCCC3)nn12 [(S)-1-{2-[2-(5-Methyl-[1,2,4]triazolo[1,5-a]pyridin-2-yl)-ethyl]-4-thiophen-2-yl-imidazol-1-yl}-3-pyrrolidin-1-yl-propan-2-ol]	58 nM
Cc1cccc2nc(CCc3nc(-c4cccnc4)cn3C)nn12 [5-Methyl-2-[2-(1-methyl-4-pyridin-3-yl-1H-imidazol-2-yl)-ethyl]-[1,2,4]triazolo[1,5-a]pyridine]	71 nM
Cc1cc(C)n2cc(CCc3nc(-c4cccs4)cn3CCC(C)C)nc2n1 [5,7-Dimethyl-2-{2-[1-(3-methyl-butyl)-4-thiophen-2-yl-1H-imidazol-2-yl]-ethyl}-imidazo[1,2-a]pyrimidine]	6.8 nM
Cc1cc(C)n2cc(/C=C/c3nc(-c4cccs4)cn3COCC[Si](C)(C)C)nc2n1 [5,7-Dimethyl-2-{(E)-2-[4-thiophen-2-yl-1-(2-trimethylsilanyl-ethoxymethyl)-1H-imidazol-2-yl]-vinyl}-imidazo[1,2-a]pyrimidine]	81 nM
COc1ccc(C)n2nc(CCc3nc(-c4ccoc4)cn3C)nc12 [2-[2-(4-Furan-3-yl-1-methyl-1H-imidazol-2-yl)-ethyl]-8-methoxy-5-methyl-[1,2,4]triazolo[1,5-a]pyridine]	4 nM
Cc1ncc(C)n2nc(CCc3nc(-c4cncs4)cn3C)nc12 [5,8-Dimethyl-2-[2-(1-methyl-4-thiazol-5-yl-1H-imidazol-2-yl)-ethyl]-[1,2,4]triazolo[1,5-a]pyrazine]	6.9 nM
